What was measured:
EBC-1 shMet-4.5 tumors = test: Combination efficacy of erlotinib with c-met knockdown (Dox) in the EBC-1 shMet-4.5 NSCLC xenograft model; format: in vivo, nude mice (nu/nu); conditions: EBC-1 shMet-4.5 xenograft
Protocol: Test material. Erlotinib (Tarceva™) was provided by OSI Pharmaceuticals to the Formulations Department at Genentech and was weighed out along with a sufficient amount of vehicle (methylcellulose tween (MCT)). Materials were stored in a refrigerator set to maintain a temperature range of 4° C. to 8° C. Anti-c-met monovalent monoclonal antibody MetMAb (rhuOA5D5v2) (WO2007/063816) was provided by the Antibody Engineering Department at Genentech, Inc., in a clear liquid form. The EBC-1 cell line was obtained from Japanese Collection of Research Bioresources (JCRB). Species. Forty nude mice (nu/nu) were obtained from Charles River Laboratories (CRL) and were acclimatized for at least one week prior to being put on study. Animals were housed in ventilated caging systems in rooms with filters supplying High-Efficiency Particulate Air (HEPA). Only animals that appeared to be healthy and were free of obvious abnormalities were used for the study. Study design. EBC-1 cells were cultured in growth media that consisted of RPMI 1640 media (Invitrogen), 2 mM L-glutamine, and 10% fetal bovine serum. To prepare cells for inoculation into mice, cells were trypsinized, washed with ten milliliters of sterile 1× phosphate buffered saline (PBS). A subset of cells was counted by trypan blue exclusion and the remainder of cells was resuspended in 100 μl of sterile 1× PBS to a concentration of 5×10^7 cells per milliliter. Mice were inoculated subcutaneously in the right sub-scapular region with 5×10^6 EBC-1 cells. […] Mice in Group 1 (control group) were treated with 100 μL vehicle control, methylcellulose tween (MCT), every day (QD) via oral gavage (PO) and were switched to drinking water containing 5% sucrose. […] Dox and sucrose water was changed every 2-3 days. Erlotinib and MCT were dosed for 14 days, stopped for 6 days and then resumed for the remainder of the study (20 days). […] All studies and handling of mice complied with the Institutional Animal Care and Use Committee (IACUC) guidelines. [table] Tumor and Body Weight Measurement. […] Fowler Company, Inc.; Newton, Mass.). The following formula was used with Excel v11.2 (Microsoft Corporation; Redmond, Wash.) to calculate tumor volume: […] Efficacy Data Analysis. Tumor inhibition was plotted using KaleidaGraph 3.6 (Synergy Software; Reading, Pa.). Percent growth inhibition (% Inh) at Day 17 was calculated as follows: […] Tumor incidence (TI) was determined by the number of measurable tumors in each group at Day 17. […] Mean tumor volume and standard error of the mean (SEM) were calculated using JMP software, version 5.1.2 (SAS Institute; Cary, N.C.). Data analysis and generation of p-values using either Student's t-test or the Dunnett's t-test was also done using JMP software, version 5.1.2. […] Mice were then grouped into four treatment arms; […] Vehicles, Group 2: Doxycycline (Dox), Group 3: erlotinib (100 mg/kg), and Group 4: erlotinib+Dox (See Table 6).

NCI-H596 cell line = NCI-H596 cell line in vitro; cited from earlier work
[1] = 10 mice per group, any day during the study

## C#Cc1cccc(Nc2ncnc3cc(OCCOC)c(OCCOC)cc23)c1 [erlotinib, N-(3-ethynylphenyl)-6,7-bis(2-methoxyethoxy)-4-quinazolinamine]
EBC-1 shMet-4.5 tumors; [1]
  number of complete responses (CR; tumor regression of 100%): no
  number of partial responses (PR; tumor regression >50% but <100% of starting tumor volume): no
EBC-1 shMet-4.5 tumors; nude mice, day 19, erlotinib 100 mg/kg PO QD, Dox in drinking water
  reduction in tumor growth compared to the vehicle control (tumor inhibition): −6%

B1: MetMAb: Anti-c-met monovalent monoclonal antibody MetMAb (rhuOA5D5v2) (WO2007/063816) (antibody, chains of the INN, looked up, V domains shown)
VH: EVQLVESGGGLVQPGGSLRLSCAASGYTFTSYWLHWVRQAPGKGLEWVGMIDPSNSDTRFNPNFKDRFTISADTSKNTAYLQMNSLRAEDTAVYYCATYRSYVTPLDYWGQGTLVTVSS
VL: DIQMTQSPSSLSASVGDRVTITCKSSQSLLYTSSQKNYLAWYQQKPGKAPKLLIYWASTRESGVPSRFSGSGSGTDFTLTISSLQPEDFATYYCQQYYAYPWTFGQGTKVEIK
modifications: one-armed
NCI-H596 cell line
  HGF-driven proliferation: blocks HGF-driven proliferation

Source: patent publication US20160303127A1, “COMBINATION THERAPY WITH C-MET AND EGFR ANTAGONISTS” (Genentech, Inc., priority 2008, published 2016)
